Patent US20200288710A1, “SUBSTITUTED SULPHONAMIDES FOR CONTROLLING ANIMAL PESTS” (BAYER CROPSCIENCE AKTIENGESELLSCHAFT, priority 2016, published 2020)

Key:
Format in all cases: in vivo
[1] = tested on: Lucilia cuprina; test: Lucilia cuprina test; conditions: 48 h, L1 larvae, after 2 days, read-out: efficacy (kill in %)
Method: Lucilia cuprina Test Solvent: dimethyl sulphoxide To produce a suitable preparation of active compound, 10 mg of active compound are mixed with 0.5 ml of dimethyl sulphoxide, and the concentrate is diluted with water to the desired concentration. About 20 L1 larvae of the Australian sheep blowfly (Lucilia cuprina) are transferred into a test vessel containing minced horsemeat and the active compound preparation of the desired concentration. After 2 days, the kill in % is determined. 100% means that all the larvae have been killed; 0% means that no larvae have been killed.

[2] = tested on: Meloidogyne incognita; test: Meloidogyne incognita test; conditions: 336 h, lettuce, after 14 days, read-out: nematicidal efficacy (formation of galls)
How it was run: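 Gall formation on lettuce roots scored after 14 days: 0% means gall count equals untreated control, 100% means none. Sand vessels held the compound (acetone concentrate diluted in water), southern root-knot nematode egg/larvae suspension and lettuce seeds.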

[3] = tested on: Myzus persicae; test: Myzus persicae spray test (Chinese cabbage leaf discs); conditions: foliar, 120 h, 500 g/ha, after 5-6 days, read-out: efficacy
How it was run: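 Formulated compound in acetone/dimethylformamide, diluted in water with 1000 ppm emulsifier, was sprayed onto Brassica pekinensis leaf discs carrying mixed-stage Myzus persicae. Percent mortality was read 5-6 days later (0% = no aphids killed, 100% = all killed).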

[4] = tested on: Phaedon cochleariae; test: Phaedon cochleariae spray test; conditions: foliar, 168 h, Chinese cabbage leaf discs, larvae, after 7 days, read-out: efficacy
How it was run: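 Mortality of beetle larvae scored at day 7, expressed as % (0% none killed, 100% all). Formulation: compound in solvent, made up and further diluted with emulsifier-containing water (1000 ppm emulsifier).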

[5] = tested on: Myzus persicae; test: Myzus persicae oral test; conditions: 120 h, 20 ppm, oral uptake, after 5 days, read-out: efficacy
How it was run: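 Aphids of mixed ages imbibe, through parafilm, compound solution (acetone stock, water-diluted) combined with sugar-supplemented IPL41 medium to 200 μl. Efficacy read at day 5 as percent killed, 0% meaning no deaths.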

[6] = tested on: Tetranychus urticae; test: Tetranychus urticae spray test, OP-resistant; conditions: foliar, 144 h, bean leaf discs, after 6 days, read-out: efficacy
Method: Tetranychus urticae—Spray Test, OP-Resistant
To produce a suitable preparation of active compound, 1 part by weight of active compound is dissolved using the specified parts by weight of solvent and made up with water containing an emulsifier concentration of 1000 ppm until the desired concentration is attained. To produce further test concentrations, the formulation is diluted with emulsifier-containing water.
Discs of bean leaves (Phaseolus vulgaris) infested with all stages of the greenhouse red spider mite (Tetranychus urticae) are sprayed with an active compound preparation of the desired concentration.
After 6 days, the efficacy in % is determined. 100% means that all the spider mites have been killed; 0% means that no spider mites have been killed.

Row | SMILES | pest or weed control at 100 ppm [1] | pest or weed control at 20 ppm [2] | pest or weed control at 500 g/ha [3] | pest or weed control at 500 g/ha [4] | pest or weed control at 20 ppm [5] | pest or weed control at 500 g/ha [6]
1 | COc1ccc(Br)cc1S(=O)(=O)NC(=O)c1cn(C)c(-c2c(F)cccc2F)n1 [Example 18] | 100% | 90% | 100% | 100% | 100% | 
2 | Cn1cc(C(=O)NS(=O)(=O)c2ccccc2C(F)(F)F)nc1-c1c(Cl)cccc1Cl [Example 23] | 100% |  | 100% | 100% | 100% | 
3 | Cc1ccccc1S(=O)(=O)NC(=O)c1cn(C)c(-c2c(Cl)cccc2Cl)n1 [Example 25] | 100% |  | 100% |  | 100% | 
4 | Cc1ccccc1S(=O)(=O)NC(=O)c1cn(C)c(-c2c(F)cccc2F)n1 [Example 27] | 100% | 90% | 100% | 100% | 100% | 
5 | Cn1cc(C(=O)NS(=O)(=O)c2ccccc2Br)nc1-c1ccccc1Cl [Example 36] | 100% | 100% | 100% | 100% | 100% | 
6 | Cc1ccc(Cl)cc1S(=O)(=O)NC(=O)c1cn(C)c(-c2ccccc2Cl)n1 [Example 37] | 100% | 100% | 90% | 100% | 100% | 
7 | Cc1ccccc1S(=O)(=O)NC(=O)c1cn(C)c(-c2ccccc2Cl)n1 [Example 54] | 100% | 100% | 100% |  | 100% | 
8 | Cn1cc(C(=O)NS(=O)(=O)c2cc(Cl)ccc2Cl)nc1-c1ccccc1Cl [Example 56] | 100% | 90% | 100% | 100% | 100% | 
9 | CCS(=O)(=O)NC(=O)c1nc(-c2ccccc2Cl)n(C)c1C [Example 70] |  |  | 90% |  | 100% | 90%
10 | O=C(NS(=O)(=O)CC(F)(F)F)c1cn(-c2ccccc2)c(-c2ccccc2Cl)n1 [Example 74] |  |  |  |  |  | 100%
11 | Cc1ccccc1-c1nc(C(=O)NS(=O)(=O)CC(F)(F)F)cn1C [Example 87] |  |  | 100% |  |  | 90%
12 | COc1ccc(Cl)c(S(=O)(=O)NC(=O)c2cn(C)c(-c3c(F)cccc3F)n2)c1 [Example 92] | 95% |  | 100% |  | 100% | 
13 | Cn1cc(C(=O)NS(=O)(=O)c2c(Cl)cccc2Cl)nc1-c1c(Cl)cccc1Cl [Example 102] | 100% | 90% | 100% | 100% | 100% | 
14 | Cn1cc(C(=O)NS(=O)(=O)c2c(Cl)cccc2Cl)nc1-c1c(F)cccc1Cl [Example 108] | 95% | 90% | 100% | 100% | 100% | 
15 | Cn1cc(C(=O)NS(=O)(=O)c2ccccc2C(F)(F)F)nc1-c1c(F)cccc1Cl [Example 109] | 100% | 90% | 100% |  | 100% | 
16 | Cn1cc(C(=O)NS(=O)(=O)c2ccccc2I)nc1-c1c(F)cccc1F [Example 120] | 100% | 90% | 100% | 100% | 100% | 
17 | Cc1cccc(C)c1S(=O)(=O)NC(=O)c1cn(C)c(-c2ccccc2Cl)n1 [Example 218] | 100% | 90% | 100% | 100% | 100% | 

Row | SMILES | pest or weed control at 100 ppm [1] | pest or weed control at 20 ppm [2] | pest or weed control at 500 g/ha [3] | pest or weed control at 500 g/ha [4] | pest or weed control at 20 ppm [5] | pest or weed control at 500 g/ha [6]
18 | Cc1ccccc1S(=O)(=O)NC(=O)c1cc(C)n(-c2ncccc2Cl)n1 [Example 274] | 95% | 90% | 100% |  | 100% | 
19 | COc1cc(S(=O)(=O)NC(=O)c2cn(C)c(-c3c(F)cccc3F)n2)c(C)cc1Br [Example 285] | 100% | 100% | 90% | 100% | 100% | 
20 | CCc1cccc(C)c1S(=O)(=O)NC(=O)c1cn(C)c(-c2c(F)cccc2F)n1 [Example 336] | 95% | 100% | 90% | 100% | 100% | 
21 | CCc1cc(Br)ccc1S(=O)(=O)NC(=O)c1cn(C)c(-c2c(F)cccc2F)n1 [Example 341] | 100% | 100% | 90% | 100% | 100% | 
22 | Cc1cccc(Cl)c1S(=O)(=O)NC(=O)c1cn(C)c(-c2c(F)cccc2F)n1 [Example 364] | 100% | 100% | 100% | 100% | 100% | 
23 | CSc1ccccc1S(=O)(=O)NC(=O)c1cn(C)c(-c2c(F)cccc2F)n1 [Example 383] | 100% |  | 100% | 100% | 100% | 
24 | Cc1ccc(F)cc1S(=O)(=O)NC(=O)c1cn(C)c(-c2c(F)cccc2F)n1 [Example 397] | 100% | 90% | 100% | 100% | 100% | 
25 | COc1ccc(C)c(S(=O)(=O)NC(=O)c2cn(C)c(-c3c(F)cccc3F)n2)c1 [Example 401] | 100% | 90% | 100% | 100% | 100% | 
26 | Cc1ccccc1S(=O)(=O)NC(=O)c1cn(C)c(-c2cccc(Cl)c2Cl)n1 [Example 519] | 100% | 100% | 90% | 100% | 100% | 
27 | Cn1cc(C(=O)NS(=O)(=O)c2ccccc2Cl)nc1-c1ncccc1Cl [Example 539] | 100% |  | 90% |  | 100% | 
28 | Cc1cccc(C)c1S(=O)(=O)NC(=O)c1cn(C)c(-c2cccc(Cl)c2Cl)n1 [Example 558] | 100% | 90% | 90% | 100% | 100% | 
29 | CCc1ccccc1S(=O)(=O)NC(=O)c1cn(C)c(-c2ncccc2F)n1 [Example 572] | 100% |  | 100% | 83% | 100% | 
30 | Cc1ccc(F)cc1S(=O)(=O)NC(=O)c1cn(C)c(-c2ncccc2Cl)n1 [Example 584] | 100% | 90% | 100% | 100% | 100% | 
31 | Cc1cccc(Cl)c1S(=O)(=O)NC(=O)c1cn(C)c(-c2ncccc2F)n1 [Example 599] |  | 100% | 100% | 100% | 100% | 
32 | Cc1cccc(C)c1S(=O)(=O)NC(=O)c1cn(C)c(-c2ncccc2F)n1 [Example 602] |  | 90% | 90% | 83% | 100% | 
33 | CCc1ccc(Cl)cc1S(=O)(=O)NC(=O)c1cn(C)c(-c2ncccc2F)n1 [Example 603] |  | 90% | 90% | 100% | 100% | 
